Experiments:
[1] = tested on: A549 cells; test: Growth inhibition of siRNA-transfected A549 cells, SYBR Green I DNA content; assay type: cell-based, human; conditions: 10 nM siRNA, DNA content 96 hours after transfection; for Growth Inhibition in A549 cells by 10 nM siRNA: transporter gene targets
Method in brief: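 Growth read-out: cellular DNA quantified with SYBR Green I (485/535 nm) 96 h after transfection, cells frozen, thawed and lysed in PBS/1% Triton X-100, pH 7. Cells (A549, 5×10^3 cells/cm^2) received 10 nM siRNA by RNAiMAX; non-specific siRNA served as control; triplicate wells averaged.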

[2] = tested on: target transcript mRNA in A549 cells; test: Level of mRNA of target transcript in A549 cells by quantitative RT-PCR (Tables 12 and 13); assay type: cell-based, human; conditions: 24 h post-transfection
Method in brief: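 Target mRNA was measured by SYBR Green quantitative RT-PCR using random-primed cDNA, normalised to HPRT and Lamin. Samples came from A549 cells 24 h post-transfection with 0.1, 1.0 or 10 nM siRNA.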

| Substance | Growth Inhibition in A549 cells by 10 nM siRNA [1] | mRNA knockdown of transporter gene target transcript, 0.1 nM ([2]; 0.1 nM siRNA) | mRNA knockdown of transporter gene target transcript, 1 nM ([2]; 1 nM siRNA) | Growth Inhibition in A549 cells [1] | mRNA knockdown of energy and metabolism gene target transcript, 0.1 nM ([2]; 0.1 nM siRNA) | mRNA knockdown of energy and metabolism gene target transcript, 1 nM ([2]; 1 nM siRNA) | mRNA knockdown of transporter gene target transcript, 10 nM ([2]; 10 nM siRNA) |
| --- | --- | --- | --- | --- | --- | --- | --- |
| SEQ ID NO: 4894: siRNA targeting SLC2A1 (GLUT1) (chain 1 TGACACTTCACCCACATACATGGGC; chain 2 UGACACUUCACCCACAUACAUGGGC; Antisense strand given in DNA and RNA notation, chemistry not given here; one strand in two spellings) | − (no growth inhibition) | − (<50% mRNA knockdown) | ++ (70-90% mRNA knockdown) |  |  |  |  |
| SEQ ID NO: 4959: siRNA targeting ATP6V1E1 (chain 1 TGGTCAATTTGGACATCAACATCGT; chain 2 UGGUCAAUUUGGACAUCAACAUCGU; chemistry not given here; one strand in two spellings) | − (no growth inhibition) | − (<50% mRNA knockdown) | ++ (70-90% mRNA knockdown) |  |  |  |  |
| SEQ ID NO: 4966: siRNA targeting ATP7A (chain 1 ATAGCTCCCAATTTGAGGTACTTGG; chain 2 AUAGCUCCCAAUUUGAGGUACUUGG; chemistry not given here; one strand in two spellings) | − (no growth inhibition) | − (<50% mRNA knockdown) | − (<50% mRNA knockdown) |  |  |  |  |
| SEQ ID NO: 4930: siRNA targeting SLC25A10 (DIC) (chain 1 TCCTGACGTTGACCAAGTCTGCGGG; chain 2 UCCUGACGUUGACCAAGUCUGCGGG; chemistry not given here; one strand in two spellings) | − (no growth inhibition) | ++ (70-90% mRNA knockdown) | ++ (70-90% mRNA knockdown) |  |  |  |  |
| SEQ ID NO: 4926: siRNA targeting SLC25A1 (CIC) (chain 1 AGTCCCACGTGTTCCGGTATTTGTG; chain 2 AGUCCCACGUGUUCCGGUAUUUGUG; chemistry not given here; one strand in two spellings) | ++ (inhibits by at least 75%) | ++ (70-90% mRNA knockdown) | ++ (70-90% mRNA knockdown) |  |  |  |  |
| SEQ ID NO: 4892: siRNA targeting SLC2A1 (GLUT1) (chain 1 TGTCTTATCACTTTGGCTGGCTCCC; chain 2 UGUCUUAUCACUUUGGCUGGCUCCC; Antisense strand given in DNA and RNA notation, chemistry not given here; one strand in two spellings) | + (inhibits by at least 50%) | − (<50% mRNA knockdown) | − (<50% mRNA knockdown) |  |  |  |  |
| SEQ ID NO: 4960: siRNA targeting ATP6V1E1 (chain 1 TGGCATTTGCACCAAACAAGGCTCC; chain 2 UGGCAUUUGCACCAAACAAGGCUCC; chemistry not given here; one strand in two spellings) | − (no growth inhibition) | − (<50% mRNA knockdown) | + (50-70% mRNA knockdown) |  |  |  |  |
| SEQ ID NO: 4974: siRNA targeting ABCC5 (MRP5) (chain 1 AACCTCTTCCATTAGAAACAAACTC; chain 2 AACCUCUUCCAUUAGAAACAAACUC; chemistry not given here; one strand in two spellings) | + (inhibits by at least 50%) | − (<50% mRNA knockdown) | + (50-70% mRNA knockdown) |  |  |  |  |
| SEQ ID NO: 5306: Stealth siRNA targeting RRM2 (chain 1 TGTCCAGGTGTTTGAACATCAGGC; chain 2 UGUACCAGGUGUUUGAACAUCAGGC; Stealth siRNA, chemical pattern not given here) |  |  |  | ++ (inhibits by at least 75%) | ++ (70-90% mRNA knockdown) | + (50-70% mRNA knockdown) |  |
| SEQ ID NO: 4921: siRNA targeting SLC9A1 (NHE1) (chain 1 ATCAGTGACGGAATGATTAACAGGG; chain 2 AUCAGUGACGGAAUGAUUAACAGGG; chemistry not given here; one strand in two spellings) | − (no growth inhibition) | ++ (70-90% mRNA knockdown) | ++ (70-90% mRNA knockdown) |  |  |  |  |
| SEQ ID NO: 4922: siRNA targeting SLC16A1 (MCT1) (chain 1 ATAGGTAGTGGATAAAGGTGCTAGC; chain 2 AUAGGUAGUGGAUAAAGGUGCUAGC; chemistry not given here; one strand in two spellings) | + (inhibits by at least 50%) | + (50-70% mRNA knockdown) | ++ (70-90% mRNA knockdown) |  |  |  | +++ (>90% mRNA knockdown) |
| SEQ ID NO: 4968: siRNA targeting ATP7B (chain 1 ATATCCCGTGGACCGATAATTTCCG; chain 2 AUAUCCCGUGGACCGAUAAUUUCCG; chemistry not given here; one strand in two spellings) | − (no growth inhibition) | − (<50% mRNA knockdown) | ++ (70-90% mRNA knockdown) |  |  |  |  |
| SEQ ID NO: 4929: siRNA targeting SLC25A10 (DIC) (chain 1 TAGGTCATCTGTCTGCACAGCGAGG; chain 2 UAGGUCAUCUGUCUGCACAGCGAGG; chemistry not given here; one strand in two spellings) | − (no growth inhibition) | − (<50% mRNA knockdown) | + (50-70% mRNA knockdown) |  |  |  |  |
| SEQ ID NO: 4901: siRNA targeting SLC7A5 (LAT1) (chain 1 AGCGTCATCACACACGTGAACACGA; chain 2 AGCGUCAUCACACACGUGAACACGA; Antisense strand given in DNA and RNA notation, chemistry not given here; one strand in two spellings) | − (no growth inhibition) | ++ (70-90% mRNA knockdown) | ++ (70-90% mRNA knockdown) |  |  |  |  |
| SEQ ID NO: 4936: siRNA targeting SLC29A2 (ENT2) (chain 1 AAGATCCAGGGTCAGAGCTACTTTC; chain 2 AAGAUCCAGGGUCAGAGCUACUUUC; chemistry not given here; one strand in two spellings) | − (no growth inhibition) | − (<50% mRNA knockdown) | − (<50% mRNA knockdown) |  |  |  |  |

— patent publication US20080145313A1, “Compositions and Methods for the Treatment and Prevention of Neoplastic Disorders” (Genesis Research & Development Corporation Limited, priority 2006, published 2008)
